Measured values as given in US10927115B2, “Substituted heterocycles for targeting Hsp90” (Duke University, priority 2012, dated 2021).

How the values were obtained:
[1] = tested on: Hsp90 and GRP94; assay: Purinome captured on ATP Sepharose interrogated with compounds in parallel; eluted proteins identified by MS; assay type: binding, pig; details: FIG. 3; SDS-PAGE silver staining, mass spectrometry
Text: The purinome was captured from pig mammary gland extract as described (Hughes et al., Bioorg Med Chem. 2012, 20(10):3298-3305) on gamma phosphate linked ATP Sepharose. Following extensive washing with physiological buffers to remove non-specifically associated proteins, the resin was divided equally and interrogated with the indicated compounds in parallel as described (Hughes et al 2012). All eluted proteins were characterized by SDS-PAGE and silver staining, and then identified by mass spectrometry. […] Key: GRP94, glucose regulated protein 94; Hsp90, heat shock protein 90; LAPT, lapatinimb; Hsp90 STD, purified Hsp90; 17-AAG, derivatized form of geldanamycin, BLK, vehicle control consisting of buffer containing 10% DMSO used to solubilize all compounds included in the test.

[2] = target: T1, GRP94 (Sus scrofa, UniProt Q29092); assay: Elution of pig mammary gland proteins from gamma phosphate linked ATP Sepharose with increasing amounts of compound; assay type: binding; details: FIG. 2
T1 construct: The ATP resin was charged with the pig mammary gland extract; from tissue; host or cells: pig mammary gland extract captured on gamma phosphate linked ATP Sepharose
Text: (§1) The ATP resin was charged with the pig mammary gland extract and aliquots were distributed into individual wells.

[3] = tested on: Hsp90; assay: Affinity resin capture of Hsp90 from pig mammary gland extract (SDS-PAGE silver stain, MS sequencing); assay type: binding; details: 1 mM compound 5 pre-incubated in the tissue extract
Procedure: Several media were prepared as described in Example 7, using compounds 6, 7, 8 and 9. These resins were termed A, B, C and D respectively. To prepare the resin in each case, the appropriate compound was added at 1-10 μmol/gram of resin in minimal methanol.
The ability of each resin to selectively capture Hsp90 from pig mammary gland extract, a tissue shown to be high in ATP binding proteins including native forms of Hsp90, GRP94 and TRAP1, was evaluated. The resin was incubated in the protein solution then washed with a high salt buffer. The bound proteins were removed via an SDS boil procedure, separated by SDS-PAGE electrophoresis, located by silver staining and identified using mass spectrometry (MS) sequencing. […] In the case of resin E (Example 7), bound proteins were eluted with 25 mM sodium dithionite in phosphate-buffered saline.

[4] = tested on: MCF7 cells; assay: Compound 10 fluorescence in MCF7 cells with anti-Hsp90 antibody or competing compound 5; assay type: cell-based; details: FIG. 6C
Procedure: In FIG. 6B, the compound was added in the presence of an antibody to Hsp90. […] DAPI (blue) highlights the nucleus of the cell. In FIG. 6 the green staining from compound 10 fluorescence appears white, while blue from the DAPI-stained nuclei appears gray.

[5] = tested on: BT474 cells; assay: Competition of compound 10 signal by compound 5 in permeabilized cells (plate reader fluorescence); assay type: cell-based; details: compound 5 0-10 μM; escin; 30 minutes; Ex488/Em522 nm; FIG. 9
Procedure: BT474 cells were incubated with varying doses of compound 5 (0 μM, 0.01 μM, […], 1 μM and 10 μM) in the presence of a fixed concentration of compound 10 ([…]) and a cell permeabilizing agent (escin) for 30 minutes. The cells were then washed to remove the free probe and cell extracts prepared from the homogenized cells. The amount of drug uptake was then measured by fluorescence (Ex488/Em522 nm) in a micro plate fluorescence reader.

[6] = tested on: Hsp90; assay: Elution of pig mammary gland proteins from gamma phosphate linked ATP Sepharose with increasing amounts of compound; assay type: binding; details: FIG. 2
Text: as §1

T1 sequence (Q29092 22-804): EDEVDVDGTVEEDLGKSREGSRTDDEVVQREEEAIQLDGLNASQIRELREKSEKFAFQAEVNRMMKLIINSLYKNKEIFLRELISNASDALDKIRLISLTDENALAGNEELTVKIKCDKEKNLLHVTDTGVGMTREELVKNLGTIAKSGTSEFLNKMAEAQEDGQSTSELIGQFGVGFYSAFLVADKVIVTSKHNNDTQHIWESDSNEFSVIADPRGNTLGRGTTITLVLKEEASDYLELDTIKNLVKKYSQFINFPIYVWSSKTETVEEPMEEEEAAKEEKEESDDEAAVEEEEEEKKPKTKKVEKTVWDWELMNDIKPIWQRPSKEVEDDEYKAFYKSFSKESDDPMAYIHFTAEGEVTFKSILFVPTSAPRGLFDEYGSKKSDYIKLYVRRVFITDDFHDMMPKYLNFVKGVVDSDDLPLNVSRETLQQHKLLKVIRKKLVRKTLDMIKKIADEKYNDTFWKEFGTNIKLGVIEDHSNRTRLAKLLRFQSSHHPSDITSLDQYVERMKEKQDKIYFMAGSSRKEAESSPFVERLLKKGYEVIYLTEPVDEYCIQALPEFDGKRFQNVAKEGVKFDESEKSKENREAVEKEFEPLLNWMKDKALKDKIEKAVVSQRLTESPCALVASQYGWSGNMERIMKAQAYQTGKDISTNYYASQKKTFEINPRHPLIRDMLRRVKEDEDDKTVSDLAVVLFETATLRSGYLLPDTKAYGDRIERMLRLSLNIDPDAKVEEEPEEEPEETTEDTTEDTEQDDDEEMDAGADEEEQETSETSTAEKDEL

| Compound | proteins recognized (eluted from ATP Sepharose) [1] | further results |
| --- | --- | --- |
| 17-alkylamino-17-desmethoxygeldanamycin [Compound 17-AAG, reference compound] | specificity for both Hsp90 and GRP94 | – |
| Cc1nn(-c2ccc(C(N)=O)c(N[C@H]3CC[C@H](N)CC3)c2)c2c1C(=O)CC(C)(C)C2 [Compound 28, 2-(((1r,4r)-4-aminocyclohexyl)amino)-4-(3,6,6-trimethyl-4-oxo-4,5,6,7-tetrahydro-1H-indazol-1-yl)benzamide] | only recognize Hsp90 | – |
| Cc1nn(-c2ccc(C(N)=O)c(NCCCOCCOCCOCCOCCOCCCN)c2)c2c1C(=O)CC(C)(C)C2 [Compound 8, 2-((19-Amino-4,7,10,13,16-pentaoxanonadecyl)amino)-4-(3,6,6-trimethyl-4-oxo-4,5,6,7-tetrahydro-1H-indazol-1-yl)benzamide] | only recognize Hsp90 | elution of GRP94 from ATP resin [2]: essentially no elution |
| Cc1nn(-c2ccc(C(N)=O)c(N[C@H]3CC[C@H](O)CC3)c2)c2c1C(=O)CC(C)(C)C2 [Compound 5, 2-(((1r,4r)-4-Hydroxycyclohexyl)amino)-4-(3,6,6-trimethyl-4-oxo-4,5,6,7-tetrahydro-1H-indazol-1-yl)benzamide, reference compound] | specificity for both Hsp90 and GRP94 | competition of protein binding to the resins [3]: clean exclusion of Hsp90 but not other proteins; competition of compound 10 fluorescence signal [4]: competes away the fluorescence signal; competition of the signal from compound 10 [5]: effectively competed |
| 2-((19-di(ferrocenemethylamino)-4,7,10,13,16-pentaoxanonadecyl)amino)-4-(3,6,6-trimethyl-4-oxo-4,5,6,7-tetrahydro-1H-indazol-1-yl)benzamide [Compound 27] | only recognize Hsp90 | – |
| Cc1nn(-c2ccc(C(N)=O)c(NCCCOCCOCCOCCOCCO)c2)c2c1C(=O)CC(C)(C)C2 [Compound 19, 2-((1-hydroxy-3,6,9,12-tetraoxapentadecan-15-yl)amino)-4-(3,6,6-trimethyl-4-oxo-4,5,6,7-tetrahydro-1H-indazol-1-yl)benzamide] | only recognize Hsp90 | – |
| CC1(C)CC(=O)c2c(C(F)(F)F)nn(-c3ccc(C(N)=O)c(N[C@H]4CC[C@H](O)CC4)c3)c2C1 [SNX-2112] | – | elution of GRP94 from ATP resin [2]: weaker affinity |
| Cc1nn(-c2ccc(C(N)=O)c(N[C@H]3CC[C@H]([N+](C)(C)C)CC3)c2)c2c1C(=O)CC(C)(C)C2 [Compound 29, (1r,4r)-4-((2-carbamoyl-5-(3,6,6-trimethyl-4-oxo-4,5,6,7-tetrahydro-1H-indazol-1-yl)phenyl)amino)-N,N,N-trimethylcyclohexanaminium] | only recognize Hsp90 | – |
| Cc1nn(-c2ccc(C(N)=O)c(NCCCOCCOCCOCCOCCOCCCNc3ccc([N+](=O)[O-])c4nonc34)c2)c2c1C(=O)CC(C)(C)C2 [Compound 11, 2-((19-((7-nitrobenzo[c][1,2,5]oxadiazol-4-yl)amino)-4,7,10,13,16-pentaoxanonadecyl)amino)-4-(3,6,6-trimethyl-4-oxo-4,5,6,7-tetrahydro-1H-indazol-1-yl)benzamide] | only recognize Hsp90 | – |
| CC(C)NCCCn1c(Sc2cc3c(cc2I)OCO3)nc2c(N)ncnc21 [PU-H71] | specificity for both Hsp90 and GRP94 | elution of GRP94 from ATP resin [2]: strong potency; elution of Hsp90 from ATP resin [6]: strong potency |
| Cc1nn(-c2ccc(C(N)=O)c(NCCCOCCOCCOCCOCCOCCCNc3cc(-n4nc(C)c5c4CC(C)(C)CC5=O)ccc3C(N)=O)c2)c2c1C(=O)CC(C)(C)C2 [Compound 20, 2,2′-(4,7,10,13,16-pentaoxanonadecane-1,19-diylbis(azanediyl))bis(4-(3,6,6-trimethyl-4-oxo-4,5,6,7-tetrahydro-1H-indazol-1-yl)benzamide)] | only recognize Hsp90 | – |
